# Target: T1, Squalene synthase (Rattus norvegicus, UniProt Q02769)
# T1 sequence (Q02769 whole entry): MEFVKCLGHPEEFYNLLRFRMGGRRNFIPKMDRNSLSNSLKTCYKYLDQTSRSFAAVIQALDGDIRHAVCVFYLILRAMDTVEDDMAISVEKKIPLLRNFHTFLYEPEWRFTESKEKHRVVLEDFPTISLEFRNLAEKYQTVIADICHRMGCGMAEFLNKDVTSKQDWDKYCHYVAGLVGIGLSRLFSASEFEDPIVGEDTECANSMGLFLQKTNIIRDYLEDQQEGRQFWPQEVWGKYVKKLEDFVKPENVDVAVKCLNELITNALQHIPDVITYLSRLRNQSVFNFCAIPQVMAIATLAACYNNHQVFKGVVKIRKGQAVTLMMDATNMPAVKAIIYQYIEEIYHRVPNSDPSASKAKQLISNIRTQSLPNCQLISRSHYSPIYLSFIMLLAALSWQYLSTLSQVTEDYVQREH
# Experiment: Inhibitory activity against rat hepatic squalene synthase; call rule not given here
row,IC50,Structure (SMILES)
1,2 µM,C[N+](C)(CCCCCCCCCc1ccccc1)CCCCS(=O)(=O)[O-]
2,6 µM,C[N+](C)(CCCCCCCCCCc1ccccc1)CCCCS(=O)(=O)[O-]
3,5 µM,C[N+](C)(CCCCCc1ccc(-c2ccccc2)cc1)CCCCS(=O)(=O)[O-]

# The next lines start with the compound.
row,Structure (SMILES),IC50
1,C[N+](C)(CCCCc1ccc(-c2ccccc2)cc1)CCCCS(=O)(=O)[O-],25 µM
2,CC(C)=CCC/C(C)=C/CC/C(C)=C/C[N+](C)(C)CCCCS(=O)(=O)[O-],15 µM
3,C[N+](C)(CCCCCCc1ccccc1)CCCCS(=O)(=O)[O-],100 µM
4,C[N+](C)(CCCCCCCCc1ccccc1)CCCCS(=O)(=O)[O-],8 µM
5,C[N+](C)(CCCCCCc1ccc(-c2ccccc2)cc1)CCCCS(=O)(=O)[O-],60 µM

# Target: T1, Squalene synthase
# Experiment: Compound was evaluated for its inhibitory activity against rat hepatic squalene synthase at a concentration of 1000 uM; NI = No inhibition
row,IC50,Structure (SMILES)
1,Not Active,C[N+](C)(CCCCS(=O)(=O)[O-])CCc1ccccc1
2,Not Active,C[N+](C)(CCCCS(=O)(=O)[O-])Cc1ccccc1
